Laboratory results published in ChEMBL document CHEMBL1141497, “Discovery of novel FMS kinase inhibitors as anti-inflammatory agents” (Bioorg Med Chem Lett, 2008).
Each block holds one molecule with its values, some of them ahead of it.

Legend:
[1] = biological target: Macrophage colony-stimulating factor 1 receptor (Homo sapiens, UniProt P07333); assay: biochemical
Macrophage = assay: Inhibition of FMS-induced proliferation of bone marrow derived human macrophages; type: functional, cell-based
[2] = Oral bioavailability in CD1 mouse at 10 mg/kg; type: ADME, organism-based; settings: in vivo
[3] = Cmax in CD1 mouse at 2 mg/kg, iv and 10 mg/kg, po; type: ADME, organism-based; settings: in vivo
[4] = Volume of distribution in CD1 mouse at 2 mg/kg, iv and 10 mg/kg, po; type: ADME, organism-based; settings: in vivo, read-out: Vdss
[5] = Half life in CD1 mouse at 2 mg/kg, iv and 10 mg/kg, po; type: ADME, organism-based; settings: in vivo
[6] = biological target: High affinity nerve growth factor receptor (Homo sapiens, UniProt P04629); assay: Inhibition of TrkA after 27 mins by fluorescence polarization
Mus musculus [7] = species on record: Mus musculus; assay: Reduction in pannus formation in mouse CIA model BID for 14 days; type: functional; design: scale not given: the % may be the effect or the level left
Mus musculus [8] = assay: Reduction in progression of collagen-induced arthritis scores in mouse CIA model at 5 mg/kg, po bid; type: functional; design: scale not given: the % may be the effect or the level left
Mus musculus [9] = assay: Reduction in progression of collagen-induced arthritis scores in mouse CIA model at 30 mg/kg, po bid; type: functional; design: scale not given: the % may be the effect or the level left
[10] = biological target: Mast/stem cell growth factor receptor Kit (Homo sapiens, UniProt P10721); assay: Inhibition of Kit after 30 mins by fluorescence polarization
Mus musculus [11] = species on record: Mus musculus; assay: Reduction in bone destruction in mouse CIA model BID for 14 days; type: functional; design: scale not given: the % may be the effect or the level left

Sequence of Macrophage colony-stimulating factor 1 receptor (P07333 whole entry): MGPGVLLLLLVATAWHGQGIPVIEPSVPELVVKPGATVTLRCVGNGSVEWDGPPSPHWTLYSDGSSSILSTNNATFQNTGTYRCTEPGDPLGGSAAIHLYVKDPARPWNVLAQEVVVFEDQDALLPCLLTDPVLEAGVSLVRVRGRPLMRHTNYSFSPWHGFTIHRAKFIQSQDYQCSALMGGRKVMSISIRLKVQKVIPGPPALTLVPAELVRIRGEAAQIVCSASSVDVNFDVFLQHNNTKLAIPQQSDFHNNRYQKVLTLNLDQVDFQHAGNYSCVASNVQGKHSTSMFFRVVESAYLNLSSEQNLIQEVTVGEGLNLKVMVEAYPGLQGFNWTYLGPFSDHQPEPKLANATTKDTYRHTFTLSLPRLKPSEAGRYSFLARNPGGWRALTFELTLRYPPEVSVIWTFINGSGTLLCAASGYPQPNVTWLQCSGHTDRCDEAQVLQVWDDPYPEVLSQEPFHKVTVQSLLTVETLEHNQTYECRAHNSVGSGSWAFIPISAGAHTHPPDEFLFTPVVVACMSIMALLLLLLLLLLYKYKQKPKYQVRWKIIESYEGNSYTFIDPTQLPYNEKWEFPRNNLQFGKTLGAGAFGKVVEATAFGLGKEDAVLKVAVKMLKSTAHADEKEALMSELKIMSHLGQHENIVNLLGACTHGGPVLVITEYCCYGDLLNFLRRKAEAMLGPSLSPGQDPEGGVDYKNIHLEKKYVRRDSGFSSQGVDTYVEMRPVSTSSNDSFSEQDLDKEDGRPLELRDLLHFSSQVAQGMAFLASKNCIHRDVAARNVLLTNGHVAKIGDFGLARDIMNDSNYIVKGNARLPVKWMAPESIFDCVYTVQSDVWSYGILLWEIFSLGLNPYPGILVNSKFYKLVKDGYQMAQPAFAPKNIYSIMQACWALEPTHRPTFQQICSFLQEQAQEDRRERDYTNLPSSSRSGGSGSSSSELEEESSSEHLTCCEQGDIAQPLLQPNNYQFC
Sequence of High affinity nerve growth factor receptor (P04629 whole entry): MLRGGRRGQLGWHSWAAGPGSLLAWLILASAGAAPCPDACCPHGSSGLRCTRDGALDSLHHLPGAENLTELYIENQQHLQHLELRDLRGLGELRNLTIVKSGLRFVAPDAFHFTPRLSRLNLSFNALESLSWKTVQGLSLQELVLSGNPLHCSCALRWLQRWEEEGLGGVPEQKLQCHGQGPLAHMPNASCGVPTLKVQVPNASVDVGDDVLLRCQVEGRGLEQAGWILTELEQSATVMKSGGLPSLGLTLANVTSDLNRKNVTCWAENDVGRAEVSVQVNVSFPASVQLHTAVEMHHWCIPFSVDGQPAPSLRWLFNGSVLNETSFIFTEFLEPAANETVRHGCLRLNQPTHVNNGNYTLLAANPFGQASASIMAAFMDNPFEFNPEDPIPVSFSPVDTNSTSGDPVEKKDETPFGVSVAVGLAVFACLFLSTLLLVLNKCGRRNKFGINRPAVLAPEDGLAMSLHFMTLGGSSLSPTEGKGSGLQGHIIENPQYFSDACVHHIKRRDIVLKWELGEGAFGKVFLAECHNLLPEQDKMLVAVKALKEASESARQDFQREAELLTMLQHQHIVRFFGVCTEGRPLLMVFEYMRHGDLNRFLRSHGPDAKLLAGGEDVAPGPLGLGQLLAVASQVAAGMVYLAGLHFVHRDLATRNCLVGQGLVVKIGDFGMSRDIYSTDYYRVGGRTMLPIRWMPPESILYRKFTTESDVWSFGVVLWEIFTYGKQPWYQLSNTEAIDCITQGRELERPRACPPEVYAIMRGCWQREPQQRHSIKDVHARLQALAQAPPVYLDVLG
Sequence of Mast/stem cell growth factor receptor Kit (P10721 whole entry): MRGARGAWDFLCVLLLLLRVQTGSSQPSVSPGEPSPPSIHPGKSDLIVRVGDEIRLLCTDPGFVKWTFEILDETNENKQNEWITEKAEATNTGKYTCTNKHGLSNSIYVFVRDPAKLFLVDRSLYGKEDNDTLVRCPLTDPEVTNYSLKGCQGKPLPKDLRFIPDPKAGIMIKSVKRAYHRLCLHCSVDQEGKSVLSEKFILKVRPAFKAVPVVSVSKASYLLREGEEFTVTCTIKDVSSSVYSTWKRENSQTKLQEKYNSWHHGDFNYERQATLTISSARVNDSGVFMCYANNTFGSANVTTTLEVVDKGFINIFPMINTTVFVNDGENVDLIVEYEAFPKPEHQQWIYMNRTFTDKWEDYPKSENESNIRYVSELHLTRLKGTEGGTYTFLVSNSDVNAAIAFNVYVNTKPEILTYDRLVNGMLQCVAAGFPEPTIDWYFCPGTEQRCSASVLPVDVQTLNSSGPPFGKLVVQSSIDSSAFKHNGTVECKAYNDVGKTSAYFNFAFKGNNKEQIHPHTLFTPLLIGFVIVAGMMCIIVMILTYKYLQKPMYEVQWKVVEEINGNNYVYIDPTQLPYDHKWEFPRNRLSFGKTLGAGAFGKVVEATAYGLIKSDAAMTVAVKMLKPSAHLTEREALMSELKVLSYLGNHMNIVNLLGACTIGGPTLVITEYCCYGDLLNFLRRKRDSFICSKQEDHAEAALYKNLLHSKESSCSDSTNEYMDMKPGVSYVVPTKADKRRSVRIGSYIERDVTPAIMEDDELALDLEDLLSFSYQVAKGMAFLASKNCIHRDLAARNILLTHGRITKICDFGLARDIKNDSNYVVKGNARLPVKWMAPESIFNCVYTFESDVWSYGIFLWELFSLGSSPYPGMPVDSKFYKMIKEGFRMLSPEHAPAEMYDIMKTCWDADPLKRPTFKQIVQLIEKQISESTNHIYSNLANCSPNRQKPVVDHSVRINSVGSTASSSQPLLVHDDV

- IC50 [1]: 0.003 µM
Structure (SMILES): N#Cc1ccc(C(=O)Nc2ccc(-n3ccnc3)cc2N2CCCCC2)o1

- IC50 [1]: 0.017 µM
Structure (SMILES): N#Cc1ccc(C(=O)Nc2ccc(N3CCCCC3)cc2N2CCCCC2)o1

- IC50 [1]: 0.063 µM
Structure (SMILES): N#Cc1ccc(C(=O)Nc2ccc(F)cc2N2CCCCC2)o1

- IC50 [1]: 0.0009 µM
Structure (SMILES): CC1CCN(c2cc(N3CCN(S(C)(=O)=O)CC3)ccc2NC(=O)c2ccc(C#N)o2)CC1

- bioavailability [2]: 32%
- Cmax [3]: 386 ng/mL
- Vd [4]: 7.97 L/kg
- half-life [5]: 1.03 h
Structure (SMILES): CN1CCN(c2ccc(NC(=O)c3ccc(C#N)o3)c(N3CCCCC3)c2)CC1
- IC50 (Macrophage): 0.005 µM

- IC50 [1]: 0.083 µM
Structure (SMILES): CN1CCN(C(=O)N(C)c2ccc(NC(=O)c3ccc(C#N)o3)c(N3CCCCC3)c2)CC1

- IC50 [1]: 0.001 µM
Structure (SMILES): CC1CCN(c2cc(N3CCNCC3)ccc2NC(=O)c2cc(C#N)c[nH]2)CC1

- IC50 [1]: 0.071 µM
Structure (SMILES): CS(=O)(=O)Nc1ccc(NC(=O)c2ccc(C#N)o2)c(N2CCCCC2)c1

- bioavailability [2]: 39%
- Cmax [3]: 454 ng/mL
- Vd [4]: 11.4 L/kg
- half-life [5]: 1.63 h
Structure (SMILES): CC1CCN(c2cc(N3CCN(C)CC3)ccc2NC(=O)c2ccc(C#N)o2)CC1
- IC50 (Macrophage): 0.002 µM

- IC50 [1]: > 0.06 µM
Structure (SMILES): CN1CCN(c2ccc(NC(=O)c3ccc(C#N)o3)c(N3CCCCC3=O)c2)CC1
- IC50 (Macrophage): > 10 µM

- IC50 [1]: 0.021 µM
Structure (SMILES): CCOc1ccc(NC(=O)c2ccc(C#N)o2)c(N2CCCCC2)c1

- IC50 [1]: 0.0063 µM
Structure (SMILES): CN1CCN(c2ccc(NC(=O)c3ccc(C#N)o3)c(N3CCCC(F)C3)c2)CC1 (configuration not stated)

- bioavailability [2]: 45%
- IC50 [6]: 0.011 µM
- Cmax [3]: 853 ng/mL
- Vd [4]: 5.63 L/kg
- half-life [5]: 4.07 h
- IC50 [10]: 0.0035 µM
Structure (SMILES): CC1CCN(c2cc(N3CCN(C)CC3)ccc2NC(=O)c2cc(C#N)c[nH]2)CC1
- Activity (Mus musculus [7]): 80%
- Activity (Mus musculus [8]): 35%
- Activity (Mus musculus [9]): 65%
- Activity (Mus musculus [11]): 80%

The next lines start with the molecule.

Structure (SMILES): CN(c1ccc(NC(=O)c2ccc(C#N)o2)c(N2CCCCC2)c1)S(C)(=O)=O
- IC50 [1]: 0.025 µM

Structure (SMILES): CC(=O)N1CCN(c2ccc(NC(=O)c3cc(C#N)c[nH]3)c(N3CCC(C)CC3)c2)CC1
- IC50 [1]: 0.0007 µM

Structure (SMILES): CN1CCN(c2ccc(NC(=O)c3ccc(C#N)o3)c(N3CCOCC3)c2)CC1
- IC50 [1]: 0.08 µM
- IC50 (Macrophage): 2.8 µM

Structure (SMILES): CC1CCN(c2cc(N3CCN(C)CC3)cnc2NC(=O)c2ccc(C#N)o2)CC1
- IC50 [1]: 0.72 µM

Structure (SMILES): CC1CCN(c2nc(N3CCN(C)CC3)ccc2NC(=O)c2ccc(C#N)o2)CC1
- IC50 [1]: 0.01 µM

Structure (SMILES): Cc1cnn(-c2ccc(NC(=O)c3ccc(C#N)o3)c(N3CCCCC3)c2)c1
- IC50 [1]: 0.064 µM

Structure (SMILES): CCN(C)CCCc1ccc(NC(=O)c2ccc(C#N)o2)c(N2CCCCC2)c1
- IC50 [1]: 0.052 µM

Structure (SMILES): CC1CCN(c2cc(N3CCOCC3)ccc2NC(=O)c2ccc(C#N)o2)CC1
- IC50 [1]: 0.011 µM

Structure (SMILES): N#Cc1ccc(C(=O)Nc2ccc(N3CCS(=O)(=O)CC3)cc2N2CCCCC2)o1
- IC50 [1]: 0.0007 µM

Structure (SMILES): CN1CCN(c2ccc(NC(=O)c3cc(C#N)c[nH]3)c(N3CCCCC3)c2)CC1
- IC50 (Macrophage): 0.002 µM
